# Source: patent US11299782B2, “Methods for predicting anti-cancer response” (Children's Medical Center Corporation, priority 2012, dated 2022)
# Tested on: operable TNBC
# Test: Cisplatin-1 clinical trial: preoperative cisplatin monotherapy, pathologic response
# Type: in vivo, human
# Method: We performed a clinical trial, Cisplatin-1, in which 28 patients with operable TNBC were treated preoperatively with cisplatin monotherapy. […] A second trial, Cisplatin-2, accrued 51 patients with TNBC who received the same preoperative cisplatin regimen as Cisplatin-1, but in combination with the angiogenesis inhibitor bevacizumab (Ryan, P. D., et al. Neoadjuvant cisplatin and bevacizumab in triple negative breast cancer (TNBC): Safety and Efficacy. J Clin Oncol 2009; 27: 551). Response rate in Cisplatin-2 were similar to Cisplatin-1. […] In Cisplatin-2, 8 patients carried a germline BRCA1 or BRCA2 mutation, of which 4 patients achieved a pCR or near pCR to the cisplatin-bevacizumab regimen. In both trials, all patients had research sequencing to determine their germline BRCA1 and BRCA2 status. Thus in some aspects of all the embodiments of the invention, the BRCA1 and BRCA2 status can be determined either simultaneously with or before the allelic imbalance or telomeric allelic imbalance analysis. In some aspects, only patients without BRCA1 or BRCA2 mutations are subjected to the NAI (number of allelic imbalance) or NtAI (number of telomeric allelic imbalance) assays or analyses. Cisplatin was used as an example of platinum comprising cancer therapies. A total of 28 mainly sporadic TNBC patients were treated with cisplatin monotherapy in the neo-adjuvant setting (Silver et al. (2010) J. Clin. Oncol. 28, 1145-1153). Cisplatin response was measured using the semiquantitative Miller-Payne score by pathological assessment of surgical samples after therapy (Ogston et al. (2003) Breast 12, 320-327). […] Therapeutic response was measured using the semiquantitative Miller-Payne grading system, which estimates the percent reduction in invasive tumor volume and cellularity based on pathological assessment of surgical samples after therapy (Ogston, K. N., et al., A new histological grading system to assess response of breastcancers to primary chemotherapy: prognostic significance and survival. Breast 2003; 12: 320-327). […]
compound,measurement,setting,value
N.N.[Cl][Pt][Cl] [cisplatin],patients with greater than 90% tumor reduction,"10 of 28 patients, preoperative cisplatin monotherapy",36%
same,patients progressed on therapy,of 28 patients,4
same,"pathologic complete response (pCR), number of women","of 28 patients, 2 of them had BRCA1-associated cancers",6
